Values joined by “and” are separate entries in the source; they are usually repeats but may differ in a detail not shown here. Equal values may be shown once.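 Test compounds were applied to cells in 96-well plates for 48 hours at 5 doses. Here, GI50 denotes the concentration required for 50% inhibition of growth. TGI is the concentration that stops growth completely.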
Key:
Test in all cases: growth of human tumour cells (NCI), 48 h
BT-549 breast = system: BT-549 breast
CAKI-1 renal = system: CAKI-1 renal
COLO 205 colon = system: COLO 205 colon
DU-145 prostate = system: DU-145 prostate
HCT-15 colon = system: HCT-15 colon
HOP-62 NSCLC = system: HOP-62 NSCLC
HS 578T breast = system: HS 578T breast
OVCAR-8 ovarian = system: OVCAR-8 ovarian
SF-295 CNS = system: SF-295 CNS
SK-MEL-5 melanoma = system: SK-MEL-5 melanoma

Structure (SMILES) | GI50 (BT-549 breast) | TGI (BT-549 breast) | GI50 (CAKI-1 renal) | TGI (CAKI-1 renal) | GI50 (COLO 205 colon) [µM] | TGI (COLO 205 colon) [µM] | GI50 (DU-145 prostate) | TGI (DU-145 prostate) | GI50 (HCT-15 colon) | TGI (HCT-15 colon) | GI50 (HOP-62 NSCLC) [µM] | TGI (HOP-62 NSCLC) [µM] | GI50 (HS 578T breast) | TGI (HS 578T breast) | GI50 (OVCAR-8 ovarian) | TGI (OVCAR-8 ovarian) | GI50 (SF-295 CNS) | TGI (SF-295 CNS) | GI50 (SK-MEL-5 melanoma) | TGI (SK-MEL-5 melanoma)
Cn1c2c(c3ccccc31)CCN1C[C@@H]3CCCC[C@H]3C[C@@H]21 | 3.04 µM | 9.19 µM | 2.92 µM | > 29.5 µM | 2.04 | 4.68 | 2.36 µM | 5.8 µM | 2.55 µM | > 100 µM | 3.32 | > 36.2 | 4.51 µM | > 100 µM | 2.84 µM | > 30.2 µM | 2.25 µM | 6.58 µM | 1.42 µM | 4.07 µM
N#CC1=C(N)N=C(N2CCOCC2)C(C#N)C12Nc1ccccc1S2 (stereo not given) | 23.3 µM | 60.6 µM | 12.6 µM | 44.4 µM | 12.7 | 52.4 | 19.2 µM | 56.5 µM | 29.1 µM | > 100 µM | 61.4 | > 100 | 1.75 µM | 7.17 µM | 4.23 µM | 59.5 µM | 26.3 µM | 79.1 µM | 12.5 µM | 28.2 µM
COc1ccc(C2=C(c3ccccc3)C(=O)N3CCCC3C2)cc1 (stereo not given) | 32.5 µM | > 100 µM | 8.05 µM | > 100 µM | 0.241 | > 100 | 4.13 µM | > 100 µM | < 0.0249 µM | > 100 µM | 39.8 | > 100 | > 100 µM | > 100 µM | 9.42 µM | > 100 µM | 2.11 µM | > 100 µM | 3.17 µM | > 100 µM
O=C(O)CN1C(=O)OC(c2ccccc2)C1=O (stereo not given) |  | > 100 µM |  | > 100 µM |  | > 100 |  | > 100 µM |  | > 100 µM |  | > 100 |  | > 100 µM |  | > 100 µM |  | > 100 µM |  | > 100 µM
CC(C)[C@@]12C[C@@H](OC(=O)COC(=O)c3ccccc3)[C@@](C)(O1)[C@@H]1CC[C@@H](C)[C@H]1[C@@H]2OC(=O)/C=C/c1ccccc1 | 0.304 µM | > 100 µM | 0.0812 µM | 2.87 µM | > 100 | > 100 | > 100 µM | > 100 µM | > 89 µM | > 100 µM | > 100 | > 100 | 0.0135 µM | 0.0701 µM | 0.134 µM | > 100 µM | > 100 µM | > 100 µM | > 100 µM | > 100 µM
CCCCCc1cc(/C=C2/N=C(c3ccc[nH]3)C=C2OC)[nH]c1C |  | 0.292 µM |  | 0.0168 µM |  | 0.0483 |  | 1.48 µM |  | 1.05 µM |  | 0.362 |  | 0.0191 µM |  | 1.25 µM |  | < 0.0282 µM |  | 0.0422 µM
O=C1NC(c2ccc3ccccc3c2)Nc2ccccc21 (stereo not given) |  | 37.1 µM |  | > 100 µM |  | > 100 |  | > 100 µM |  | > 100 µM |  | > 100 |  | > 100 µM |  | > 100 µM |  | > 100 µM |  | > 100 µM
CC(C)(C)N1CC1CNC(=O)C(=O)NCC1CN1C(C)(C)C (stereo not given) |  | > 92.6 µM |  | > 96.1 µM |  | 8.5 |  | > 26.9 µM |  | 10.5 µM |  | 3.68 |  | > 100 µM |  | 14.8 µM |  | 14.3 µM |  | 45.2 µM
CC(C)n1cc(-c2ccc3c(c2)N(C)CC3)c2c(NS(=O)(=O)c3ccn(C)n3)ccnc21 | 25.3 µM | > 100 µM | 44.3 µM | > 100 µM | > 100 | > 100 | > 100 µM | > 100 µM | 35.9 µM | > 100 µM | > 100 | > 100 | 37 µM | > 100 µM | 72.7 µM | > 100 µM | 27.4 µM | > 100 µM | 37.4 µM | > 100 µM
CC[C@]12C=CCN3CC[C@]4(C(=C(C(=O)OC)C1)Nc1cc5c(cc14)[C@@H]1[C@H](O5)[C@@H](O)[C@@]4(CC)CC(C(=O)OC)=C5Nc6ccccc6[C@@]56CCN1[C@@H]46)[C@@H]32 | 0.913 µM and 2.49 µM | 25 µM and > 100 µM | 0.0819 µM and 0.268 µM | 8.09 µM and 37.7 µM | 0.0695 | 2.78 | 1.59 µM and 1.77 µM | 25 µM and 10.7 µM | 0.0964 µM and 0.26 µM | 3.37 µM and 1.42 µM | 0.319 | > 100 | 0.344 µM and 0.218 µM | 25 µM and > 100 µM | 0.648 µM and 0.449 µM | 25 µM and > 100 µM | 1.17 µM and 0.535 µM | 25 µM and 12.8 µM | 0.662 µM and 0.348 µM | 4.01 µM and 1.48 µM
O=C(Cc1cc(O)ccc1O)NO | 85.7 µM | > 100 µM | 26.9 µM | 81.9 µM | 18.6 | 36.3 | > 100 µM | > 100 µM | 74.6 µM | > 100 µM | > 100 | > 100 | > 100 µM | > 100 µM | > 100 µM | > 100 µM | 21.7 µM | 47.9 µM | > 100 µM | > 100 µM
NC(=O)c1c[nH]c2ncnc(N)c12 | 21.6 µM | > 100 µM | 2.69 µM | 33.8 µM | 27 | > 100 | 44.6 µM | > 100 µM | 41.8 µM | > 100 µM | 53.3 | > 100 | 36.4 µM | > 100 µM | 90.2 µM | > 100 µM | 31.1 µM | > 100 µM | 84.3 µM | > 100 µM
CC(C)C[C@H](NC(=O)[C@@H](Cc1ccccc1)n1ccc(Nc2ccccc2)cc1=O)B(O)O | 0.289 µM | 2.35 µM | 0.403 µM | 5.45 µM | 0.545 | 13.1 | 0.783 µM | 16.7 µM | 1.11 µM | 17 µM | 1.74 | 7.04 | 0.361 µM | 7.06 µM | 1.88 µM | 74.6 µM | 0.285 µM | 1.22 µM | 0.321 µM | 1.14 µM
O=C1CCc2cc(Br)ccc2O1 |  | > 100 µM |  | > 100 µM |  | > 100 |  | > 100 µM |  | > 100 µM |  | > 100 |  | > 100 µM |  | > 100 µM |  | > 100 µM |  | > 100 µM
